Test results as given in US11986532B2 (Arvinas Operations, Inc., priority 2021, dated 2024).
Read-outs that look alike come from different tables or passages of the source.

Biological target: T1, BCL6 (Homo sapiens, UniProt P41182)
T1 construct: endogenous in cells; host or cells: T47D breast cancer epithelial cells
Experiment: Immunofluorescence protocol for high content imaging of BCL6 (degradation) in T47D cells, 3 days compound treatment
Format: cell-based
Conditions: for Dmax: read-out: Mean Dmax (%)** category; for DC50: read-out: Mean DC50 (nM)* category
Summary of the method: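 High content immunofluorescence imaging (10×, 4 fields/well) of BCL6 using rabbit primary antibody, Alexa-488 secondary, cell mask and Hoechst nuclear stain after PFA fixation. Before staining, T47D cells (7K/well) were exposed for 3 days at 37° C to 3-fold serial dilutions of compound, top final concentration 0.1 or 1 μM.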

[1] = T47D cells, 3 days compound treatment

Dmax (T47D) [%] | DC50 [nM] | DC50 [1] [nM] | Dmax [1] [%] | Structure (SMILES)
≥ 70 | < 10 |  |  | CNC(=O)COc1cc2cc(Nc3nc(N4CCC(CN5CCC6(CC5)CCN6c5ccc6c(c5)CN(C5CCC(=O)NC5=O)C6=O)CC4)ncc3Cl)ccc2n(C(C)C)c1=O (stereo not drawn) [Compound 336, 2-{[6-({5-chloro-2-[4-({1-[2-(2,6-dioxopiperidin-3-yl)-1-oxo-2,3-dihydro-1H-isoindol-5-yl]-1,7-diazaspiro[3.5]nonan-7-yl}methyl)piperidin-1-yl]pyrimidin-4-yl}amino)-2-oxo-1-(propan-2-yl)-1,2-dihydroquinolin-3-yl]oxy}-N-methylacetamide]
 |  | 10 to 50 | 50 to 70 | CNC(=O)COc1cc2cc(Nc3nc(N4CCC(OC5CCC6(CC5)CN(c5cccc7c5C(=O)N(C5CCC(=O)NC5=O)C7)C6)CC4)ncc3Cl)ccc2n(C(C)C)c1=O (stereo not drawn) [Compound 70, 2-{[6-({5-chloro-2-[4-({2-[2-(2,6-dioxopiperidin-3-yl)-3-oxo-2,3-dihydro-1H-isoindol-4-yl]-2-azaspiro[3.5]nonan-7-yl}oxy)piperidin-1-yl]pyrimidin-4-yl}amino)-2-oxo-1-(propan-2-yl)-1,2-dihydroquinolin-3-yl]oxy}-N-methylacetamide]
50 to 70 | < 10 |  |  | CNC(=O)COc1cc2c(F)c(Nc3cc(N4CCC(CN5CCC6(CN(c7ccc8c(c7F)CN(C7CCC(=O)NC7=O)C8=O)C6)C(F)(F)C5)CC4)ncc3Cl)ccc2n(C(C)C)c1=O (stereo not drawn) [Compound 252, 2-{[6-({5-chloro-2-[4-({2-[2-(2,6-dioxopiperidin-3-yl)-4-fluoro-1-oxo-2,3-dihydro-1H-isoindol-5-yl]-5,5-difluoro-2,7-diazaspiro[3.5]nonan-7-yl}methyl)piperidin-1-yl]pyridin-4-yl}amino)-5-fluoro-2-oxo-1-(propan-2-yl)-1,2-dihydroquinolin-3-yl]oxy}-N-methylacetamide]
 |  | < 10 |  | CNC(=O)COc1cc2cc(Nc3nc(N4CCOC5(CN(CCC6CCN(c7ccc8c(c7)C(=O)N(C7CCC(=O)NC7=O)C8=O)CC6)C5)C4)ncc3Cl)ccc2n(C(C)C)c1=O (stereo not drawn) [Compound 145, 2-{[6-({5-chloro-2-[2-(2-{1-[2-(2,6-dioxopiperidin-3-yl)-1,3-dioxo-2,3-dihydro-1H-isoindol-5-yl]piperidin-4-yl}ethyl)-5-oxa-2,8-diazaspiro[3.5]nonan-8-yl]pyrimidin-4-yl}amino)-2-oxo-1-(propan-2-yl)-1,2-dihydroquinolin-3-yl]oxy}-N-methylacetamide]
 |  | 10 to 50 | 50 to 70 | CNC(=O)COc1cc2cc(Nc3nc(N4CCCC4)ncc3Cl)ccc2n(CCOc2ccc3c(c2)C(=O)N(C2CCC(=O)NC2=O)C3=O)c1=O (stereo not drawn) [Compound 32, 2-[(6-{[5-chloro-2-(pyrrolidin-1-yl)pyrimidin-4-yl]amino}-1-(2-{[2-(2,6-dioxopiperidin-3-yl)-1,3-dioxo-2,3-dihydro-1H-isoindol-5-yl]oxy}ethyl)-2-oxo-1,2-dihydroquinolin-3-yl)oxy]-N-methylacetamide]
50 to 70 | < 10 |  |  | CNC(=O)COc1cc2cc(Nc3nc(N4CCN(CC5CCC6(CC5)CN(c5cc(F)cc7c5CN(C5CCC(=O)NC5=O)C7=O)C6)CC4)ncc3Cl)ccc2n(C(C)C)c1=O (stereo not drawn) [Compound 315, 2-{[6-({5-chloro-2-[4-({2-[2-(2,6-dioxopiperidin-3-yl)-6-fluoro-1-oxo-2,3-dihydro-1H-isoindol-4-yl]-2-azaspiro[3.5]nonan-7-yl}methyl)piperazin-1-yl]pyrimidin-4-yl}amino)-2-oxo-1-(propan-2-yl)-1,2-dihydroquinolin-3-yl]oxy}-N-methylacetamide]
50 to 70 | < 10 |  |  | CNC(=O)COc1cc2cc(Nc3nc(N4CCC(CN5CCC6(CC5)CCN6c5cccc6c5CN(C5CCC(=O)NC5=O)C6=O)CC4)ncc3Cl)ccc2n(C(C)C)c1=O (stereo not drawn) [Compound 334, 2-{[6-({5-chloro-2-[4-({1-[2-(2,6-dioxopiperidin-3-yl)-1-oxo-2,3-dihydro-1H-isoindol-4-yl]-1,7-diazaspiro[3.5]nonan-7-yl}methyl)piperidin-1-yl]pyrimidin-4-yl}amino)-2-oxo-1-(propan-2-yl)-1,2-dihydroquinolin-3-yl]oxy}-N-methylacetamide]
50 to 70 | 10 to 50 |  |  | CNC(=O)COc1cc2cc(Nc3nc(N4CCN(CC5CCC6(CC5)CN(c5ccc7c(c5OC)CN(C5CCC(=O)NC5=O)C7=O)C6)CC4)ncc3Cl)ccc2n(C(C)C)c1=O (stereo not drawn) [Compound 331, 2-{[6-({5-chloro-2-[4-({2-[2-(2,6-dioxopiperidin-3-yl)-4-methoxy-1-oxo-2,3-dihydro-1H-isoindol-5-yl]-2-azaspiro[3.5]nonan-7-yl}methyl)piperazin-1-yl]pyrimidin-4-yl}amino)-2-oxo-1-(propan-2-yl)-1,2-dihydroquinolin-3-yl]oxy}-N-methylacetamide]
 |  | < 10 | 50 to 70 | CNC(=O)COc1cc2cc(Nc3nc(N4CCC(OC5CCN(c6ccc7c(c6)CN(C6CCC(=O)NC6=O)C7=O)CC5)CC4)ncc3Cl)ccc2n(C(C)C)c1=O (stereo not drawn) [Compound 28, 2-{[6-({5-chloro-2-[4-({1-[2-(2,6-dioxopiperidin-3-yl)-1-oxo-2,3-dihydro-1H-isoindol-5-yl]piperidin-4-yl}oxy)piperidin-1-yl]pyrimidin-4-yl}amino)-2-oxo-1-(propan-2-yl)-1,2-dihydroquinolin-3-yl]oxy}-N-methylacetamide]
 |  | < 10 | ≥ 70 | CNC(=O)COc1cc2cc(Nc3nc(N4CCC(CN5CC6(CCN(c7cc8c(cc7F)C(=O)N(C7CCC(=O)NC7=O)C8)CC6)C5)CC4)ncc3Cl)ccc2n(C(C)C)c1=O (stereo not drawn) [Compound 84]
50 to 70 | < 10 |  |  | CNC(=O)COc1cc2cc(Nc3nc(N4CCC(N5CCC56CN(C5CCN(c7ccc8c(c7)CN(C7CCC(=O)NC7=O)C8=O)CC5)C6)CC4)ncc3Cl)ccc2n(C(C)C)c1=O (stereo not drawn) [Compound 238, 2-{[6-({5-chloro-2-[4-(6-{1-[2-(2,6-dioxopiperidin-3-yl)-1-oxo-2,3-dihydro-1H-isoindol-5-yl]piperidin-4-yl}-1,6-diazaspiro[3.3]heptan-1-yl)piperidin-1-yl]pyrimidin-4-yl}amino)-2-oxo-1-(propan-2-yl)-1,2-dihydroquinolin-3-yl]oxy}-N-methylacetamide]

Structure (SMILES) | Dmax (T47D) [%] | DC50 [nM] | DC50 [1] [nM] | Dmax [1] [%]
CNC(=O)COc1cc2cc(Nc3nc(N4CCC(O[C@H]5C[C@H](N6CCN(c7ccc8c(c7C)C(=O)N(C7CCC(=O)NC7=O)C8=O)CC6)C5)CC4)ncc3Cl)ccc2n(C(C)C)c1=O (stereo partly drawn) [Compound 177, 2-({6-[(5-chloro-2-{4-[(1r,3r)-3-{4-[2-(2,6-dioxopiperidin-3-yl)-4-methyl-1,3-dioxoisoindol-5-yl]piperazin-1-yl}cyclobutoxy]piperidin-1-yl}pyrimidin-4-yl)amino]-1-isopropyl-2-oxoquinolin-3-yl}oxy)-N-methylacetamide] |  |  | < 10 | ≥ 70
CCC(C)n1c(=O)c(OCC(=O)NC)cc2cc(Nc3nc(N4CCC(O[C@H]5C[C@H](N6CCC(c7ccc8c(c7F)CN(C7CCC(=O)NC7=O)C8=O)CC6)C5)CC4)ncc3Cl)ccc21 (stereo partly drawn) [Compound 424, 2-{[1-(butan-2-yl)-6-[(5-chloro-2-{4-[(1r,3r)-3-{4-[2-(2,6-dioxopiperidin-3-yl)-4-fluoro-1-oxo-2,3-dihydro-1H-isoindol-5-yl]piperidin-1-yl}cyclobutoxy]piperidin-1-yl}pyrimidin-4-yl)amino]-2-oxo-1,2-dihydroquinolin-3-yl]oxy}-N-methylacetamide] | ≥ 70 | < 10 |  | 
CNC(=O)COc1cc2c(F)c(Nc3nc(N4CCC(O[C@H]5C[C@H](N6CCC(c7ccc8c(c7C)C(=O)N(C7CCC(=O)NC7=O)C8=O)CC6)C5)CC4)ncc3Cl)ccc2n(C(C)C)c1=O (stereo partly drawn) [Compound 419, 2-({6-[(5-chloro-2-{4-[(1r,3r)-3-{4-[2-(2,6-dioxopiperidin-3-yl)-4-methyl-1,3-dioxo-2,3-dihydro-1H-isoindol-5-yl]piperidin-1-yl}cyclobutoxy]piperidin-1-yl}pyrimidin-4-yl)amino]-5-fluoro-2-oxo-1-(propan-2-yl)-1,2-dihydroquinolin-3-yl}oxy)-N-methylacetamide] | ≥ 70 | < 10 |  | 
CNC(=O)COc1cc2cc(Nc3nc(N4CCC(O[C@H]5C[C@H](N6CCC7(CCN(c8ccc9c(c8)CN(C8CCC(=O)NC8=O)C9=O)C7)C6)C5)CC4)ncc3Cl)ccc2n(C(C)C)c1=O (stereo partly drawn) [Compound 346, 2-({6-[(5-chloro-2-{4-[(1r,3r)-3-{7-[2-(2,6-dioxopiperidin-3-yl)-1-oxo-2,3-dihydro-1H-isoindol-5-yl]-2,7-diazaspiro [4.4]nonan-2-yl}cyclobutoxy]piperidin-1-yl}pyrimidin-4-yl)amino]-2-oxo-1-(propan-2-yl)-1,2-dihydroquinolin-3-yl}oxy)-N-methylacetamide] | ≥ 70 | < 10 |  | 
CNC(=O)COc1cc2cc(Nc3nc(N4CCC(O[C@H]5C[C@H](N6CCC7(CN(c8ccc9c(c8)C(=O)N(C8CCC(=O)NC8=O)C9)C7)C6)C5)CC4)ncc3Cl)ccc2n(C(C)C)c1=O (stereo partly drawn) [Compound 345, 2-({6-[(5-chloro-2-{4-[(1r,3r)-3-{2-[2-(2,6-dioxopiperidin-3-yl)-3-oxo-2,3-dihydro-1H-isoindol-5-yl]-2,6-diazaspiro [3.4]octan-6-yl}cyclobutoxy]piperidin-1-yl}pyrimidin-4-yl)amino]-2-oxo-1-(propan-2-yl)-1,2-dihydroquinolin-3-yl}oxy)-N-methylacetamide] | ≥ 70 | < 10 |  | 
CNC(=O)COc1cc2cc(Nc3nc(N4CCC(O[C@H]5C[C@H](N6CCC(c7ccc8c(c7C(F)(F)F)CN(C7CCC(=O)NC7=O)C8=O)CC6)C5)CC4)ncc3Cl)ccc2n(C(C)C)c1=O (stereo partly drawn) [Compound 226, 2-({6-[(5-chloro-2-{4-[(1r,3r)-3-{4-[2-(2,6-dioxopiperidin-3-yl)-1-oxo-4-(trifluoromethyl)-2,3-dihydro-1H-isoindol-5-yl]piperidin-1-yl}cyclobutoxy]piperidin-1-yl}pyrimidin-4-yl)amino]-2-oxo-1-(propan-2-yl)-1,2-dihydroquinolin-3-yl}oxy)-N-methylacetamide] | ≥ 70 | < 10 |  | 
